The record followed here is PubChem BioAssay (NCI).

Some test systems named below: KM12 colon; SN12C renal; RXF 393 renal; CCRF-CEM leukemia; COLO 205 colon; LOX IMVI melanoma; NCI-H23 lung; A498 renal; SK-MEL-28 melanoma; ACHN renal.
What all share (experiment): NCI-60 cell line screen, 48 h

The structures appear in SMILES notation.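 Method: 48-hour compound exposure of cells in 96-well plates, five concentrations, linear interpolation of endpoints. The concentration for 50% growth inhibition is given as GI50. TGI denotes the concentration required for complete inhibition of growth.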

With `Cn1nccc1Nc1nccc(-c2ccn([C@H](CO)c3ccc(Cl)c(F)c3)c(=O)c2)n1`, the GI50 was 18.8 µM in the assay on KM12 colon; 10 µM with SN12C renal; 20.4 µM with RXF 393 renal; 15.7 µM with CCRF-CEM leukemia; 0.0649 µM in the assay with COLO 205 colon; 3.72 µM in the assay with LOX IMVI melanoma. Also, the GI50 in the assay with NCI-H23 lung is 4.47 µM; in the assay on A498 renal, 1.07 µM; in the assay with SK-MEL-28 melanoma, 0.104 µM; in the assay with ACHN renal it was 25 µM. Besides, the TGI is > 100 µM in the assay with KM12 colon; > 100 µM in the assay on SN12C renal; 65.5 µM with RXF 393 renal; > 85.1 µM in the assay with CCRF-CEM leukemia; 16.7 µM with COLO 205 colon; 28.1 µM in the assay with LOX IMVI melanoma. Besides, the TGI is > 100 µM in the assay on NCI-H23 lung, 15.3 µM in the assay on A498 renal, > 100 µM with SK-MEL-28 melanoma and > 100 µM in the assay with ACHN renal.

On to `COc1cc([C@@H]2c3cc4c(cc3[C@@H](NC(=O)c3ccc(C#N)cc3)C3COC(=O)[C@@H]32)OCO4)cc(OC)c1O` (stereo partly drawn), for which the TGI in the assay with KM12 colon is 3.2 µM; with SN12C renal, 1.51 µM; with RXF 393 renal, 9.92 µM; with CCRF-CEM leukemia, > 100 µM; in the assay on COLO 205 colon, 16.4 µM; in the assay on LOX IMVI melanoma, 2.34 µM. Moreover, the TGI with NCI-H23 lung was found to be 0.837 µM; in the assay with A498 renal, 3.79 µM; in the assay on SK-MEL-28 melanoma it was 16.8 µM; with ACHN renal it was 1.47 µM.

Consider `O=C1c2cccc(Oc3ccccc3)c2C(=O)c2cccc(Oc3ccccc3)c21`, for which the GI50 was > 100 µM with KM12 colon; > 100 µM with SN12C renal; 4.7 µM in the assay on RXF 393 renal; 7.14 µM in the assay on CCRF-CEM leukemia; > 100 µM with COLO 205 colon; > 100 µM in the assay on LOX IMVI melanoma. Further, the GI50 in the assay on NCI-H23 lung, in the assay with A498 renal, in the assay on SK-MEL-28 melanoma and in the assay on ACHN renal was > 100 µM each time. Moreover, the TGI with KM12 colon is > 100 µM; with SN12C renal, > 100 µM; with RXF 393 renal, 36.4 µM; in the assay with CCRF-CEM leukemia, 30.3 µM; in the assay with COLO 205 colon, > 100 µM; with LOX IMVI melanoma, > 100 µM. Further, the TGI with NCI-H23 lung, with A498 renal, with SK-MEL-28 melanoma and in the assay with ACHN renal was > 100 µM in each case.

Take `Cc1cccc(NC(=O)c2sc3nc4c(cc3c2N)C(=O)CCC4)c1`: the GI50 was 0.215 µM in the assay on KM12 colon; 0.74 µM in the assay on SN12C renal; 0.252 µM in the assay on RXF 393 renal; 2.26 µM in the assay on CCRF-CEM leukemia; 0.231 µM in the assay with COLO 205 colon; 1 µM in the assay with LOX IMVI melanoma. Moreover, the GI50 was 0.67 µM in the assay on NCI-H23 lung, 0.0656 µM in the assay on A498 renal, 1.53 µM with SK-MEL-28 melanoma and 1.48 µM with ACHN renal. In addition, the TGI is > 100 µM in the assay with KM12 colon; > 63.8 µM in the assay with SN12C renal; > 100 µM with CCRF-CEM leukemia; > 70 µM in the assay on LOX IMVI melanoma; > 60.4 µM in the assay with NCI-H23 lung; 0.801 µM in the assay with A498 renal. The TGI was > 62.3 µM with SK-MEL-28 melanoma and > 58.5 µM with ACHN renal.

`c1ccc(-c2[nH]ncc2-c2ccnc(-c3ccc(OCCn4ccnc4)cc3)c2)nc1`: the GI50 in the assay on KM12 colon is 13.7 µM; in the assay with SN12C renal, > 25 µM; in the assay with RXF 393 renal it was > 25 µM; in the assay on CCRF-CEM leukemia, 17.3 µM; in the assay on COLO 205 colon, > 25 µM; with LOX IMVI melanoma it was > 25 µM. The GI50 with NCI-H23 lung, in the assay with A498 renal, with SK-MEL-28 melanoma and in the assay on ACHN renal was > 25 µM throughout. Besides, the TGI in the assay with KM12 colon, with SN12C renal, in the assay with RXF 393 renal, in the assay on CCRF-CEM leukemia, in the assay with COLO 205 colon and with LOX IMVI melanoma was > 25 µM each time. Besides, the TGI in the assay with NCI-H23 lung, in the assay on A498 renal, in the assay with SK-MEL-28 melanoma and with ACHN renal was > 25 µM each time.

As for `O=C1NC2=C(CCCCC/C2=N\O)C12CCCCCC2`, the TGI in the assay with KM12 colon, in the assay with SN12C renal, in the assay on RXF 393 renal, with CCRF-CEM leukemia, in the assay on COLO 205 colon and in the assay on LOX IMVI melanoma was > 100 µM each time. The TGI in the assay on NCI-H23 lung, in the assay on A498 renal, in the assay with SK-MEL-28 melanoma and in the assay with ACHN renal was > 100 µM in each case.

As to `Cn1c([N+](=O)[O-])cnc1C=C1C(=O)c2ccccc2C1=O`, the GI50 with KM12 colon is 11.1 µM; in the assay with SN12C renal it was 3.83 µM; in the assay on RXF 393 renal it was 2.6 µM; in the assay with CCRF-CEM leukemia it was 1.85 µM; in the assay on COLO 205 colon, 4.83 µM; in the assay with LOX IMVI melanoma, 2.84 µM. Also, the GI50 in the assay on NCI-H23 lung was 4.9 µM; in the assay on A498 renal it was 7.05 µM; in the assay with SK-MEL-28 melanoma, 2.56 µM; in the assay with ACHN renal it was 3.75 µM. The TGI amounted to 32.7 µM in the assay on KM12 colon; 16.1 µM with SN12C renal; 10.3 µM in the assay with RXF 393 renal; 6.53 µM in the assay on CCRF-CEM leukemia; 15.9 µM in the assay with COLO 205 colon; 11.1 µM with LOX IMVI melanoma. For the same compound, the TGI with NCI-H23 lung was determined as 20.5 µM; with A498 renal, 22.6 µM; with SK-MEL-28 melanoma, 7.4 µM; with ACHN renal, 13.7 µM.
